US20250215039A1, “NUCLEOSIDES FOR TREATING CANCER” (PRIMEFOUR THERAPEUTICS, INC., priority 2022, published 2025)
pIC50: −log10 of the molar value. Read-outs that look alike come from different tables or passages of the source.

System: cancer cell lines
Experiment: Cancer cell proliferation activity (CellTiterGlo, 72 h)
Type: cell-based
Conditions: 72 h, 72 h, read-out: IC50
Procedure, shortened: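 Cells seeded overnight at 37 °C, then dosed with compound at 0.1% final DMSO and incubated 72 h at 37 °C (5% or 10% CO2 by medium).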

CCC[C@]1(CO)O[C@@H](n2cnc3c(N)nc(F)nc32)C[C@@H]1O [Cpd. No. 129, (2R,3S,5R)-5-(6-amino-2-fluoro-9H-purin-9-yl)-2-(hydroxymethyl)-2-propyltetrahydrofuran-3-ol]
pIC50 (5637 cell line (bladder)): 6.25
pIC50 (AS49 cell line (lung)): 5.52
pIC50 (CLS439 cell line (bladder)): 5.49
pIC50 (HS729 cell line (muscle)): 6.06
pIC50 (JAR cell line (placenta)): 6.49
pIC50 (Homo sapiens, 22Rv1, 72 h, 22RV1 cell line (prostate)): 5.97
pIC50 (Homo sapiens, 786-0, 72 h, 786O cell line (kidney)): 6.52
pIC50 (Homo sapiens, A204, 72 h, A204 cell line (muscle)): 6.66
pIC50 (Homo sapiens, A673, 72 h, A673 cell line (bone)): 5.84
pIC50 (Homo sapiens, A2780, 72 h, A2780 cell line (ovary)): 6.13
pIC50 (Homo sapiens, A-375, 72 h, A375 cell line (skin)): 6.70
pIC50 (Homo sapiens, A-431, 72 h, A431 cell line (skin)): 6.48
pIC50 (Homo sapiens, ACHN, ACHN cell line (kidney)): 5.60
pIC50 (Homo sapiens, ASPC1, 72 h, ASPC1 cell line (pancreas)): 6.66
pIC50 (Homo sapiens, BT-20, 72 h, BT20 cell line (breast)): 6.47
pIC50 (Homo sapiens, BXPC-3, 72 h, BXPC3 cell line (pancreas)): 5.60
pIC50 (Homo sapiens, C-33-A, C33A cell line (cervical)): 6.20
pIC50 (Homo sapiens, CAKI-1, 72 h, CAKI1 cell line (kidney)): 7.70
pIC50 (Homo sapiens, COLO 205, 72 h, COLO205 cell line (colon)): 6.12
pIC50 (Homo sapiens, COLO-678, 72 h, COLO678 cell line (colon)): 5.70
pIC50 (Homo sapiens, Ca-Ski, CASKI cell line (cervical)): 6.80
pIC50 (Homo sapiens, Caco-2, 72 h, CACO2 cell line (colon)): 6.21
pIC50 (Homo sapiens, Calu-6, 72 h, CALU6 cell line (lung)): 6.52
pIC50 (Homo sapiens, DLD-1, 72 h, DLD1 cell line (colon)): 5.69
pIC50 (Homo sapiens, DU-145, 72 h, DU145 cell line (prostate)): 6.92
pIC50 (Homo sapiens, EFO-21, 72 h, EFO21 cell line (ovary)): 6.48
pIC50 (Homo sapiens, EJ-28, 72 h, EJ28 cell line (bladder)): 6.66
pIC50 (Homo sapiens, Granta-519, 72 h, GRANTA-519 cell line (hematological)): 5.59
pIC50 (Homo sapiens, HCT-15, 72 h, HCT15 cell line (colon)): 5.84
pIC50 (Homo sapiens, HCT-116, 72 h, HCT116 cell line (colon)): 6.32
pIC50 (Homo sapiens, HEK293, 72 h, HEK293 cell line (kidney)): 6.42
pIC50 (Homo sapiens, HL-60, 72 h, HL-60 cell line (hematological)): 6.48
pIC50 (Homo sapiens, HT-29, 72 h, HT29 cell line (colon)): 6.66
pIC50 (Homo sapiens, HT-1080, 72 h, HT1080 cell line (connective tissue)): 5.44
pIC50 (Homo sapiens, HeLa, HELA cell line (cervical)): 6.36
pIC50 (Homo sapiens, HepG2, 72 h, HEPG2 cell line (liver)): 6.52
pIC50 (Homo sapiens, Hs-578T, HS578T cell line, breast): 6.26
pIC50 (Homo sapiens, IGROV-1, 72 h, IGROV1 cell line (ovary)): 6.70
pIC50 (Homo sapiens, IMR-90, 72 h, IMR90 cell line, lung): 6.39
pIC50 (Homo sapiens, J82, 72 h, J82 cell line (bladder)): 6.33
pIC50 (Homo sapiens, JEG-3, 72 h, JEG3 cell line (placenta)): 6.54
pIC50 (Homo sapiens, JIMT-1, 72 h, JIMT1 cell line (breast)): 7.10
pIC50 (Homo sapiens, K562, 72 h, K-562 cell line (hematological)): 5.27
pIC50 (Homo sapiens, Kasumi 1, 72 h, KASUMI-1 cell line (hematological)): 7.22
pIC50 (Homo sapiens, L-363, 72 h, L-363 cell line (hematological)): 6.54
pIC50 (Homo sapiens, LoVo, LOVO cell line (colon)): 6.85
pIC50 (Homo sapiens, MCF7, 72 h, MCF7 cell line (breast)): 5.01
pIC50 (Homo sapiens, MDA-MB-231, 72 h, MDAMB231 cell line (breast)): 5.55
pIC50 (Homo sapiens, MDA-MB-435, 72 h, MDAMB435 cell line (skin)): 5.85
pIC50 (Homo sapiens, MDA-MB-436, 72 h, MDAMB436 cell line (breast)): 6.72
pIC50 (Homo sapiens, MDA-MB-468, 72 h, MDAMB468 cell line (breast)): 6.57
pIC50 (Homo sapiens, MG-63, 72 h, MG63 cell line (bone)): < 4.30
pIC50 (Homo sapiens, MHH-ES-1, 72 h, MHHES1 cell line (bone)): 6.40
pIC50 (Homo sapiens, MIA PaCa-2, 72 h, MIAPACA2 cell line (pancreas)): < 4.30
pIC50 (Homo sapiens, MINO, MINO cell line (hematological)): 6.82
pIC50 (Homo sapiens, MV4-11, 72 h, MV4-11 cell line (hematological)): 7.30
pIC50 (Homo sapiens, NCI-H23, 72 h, NCI-H23 cell line (lung)): 6.39
pIC50 (Homo sapiens, NCI-H82, 72 h, NCIH82 cell line (lung)): 6.41
pIC50 (Homo sapiens, NCI-H292, 72 h, NCIH292 cell line (lung)): 5.38
pIC50 (Homo sapiens, NCI-H460, 72 h, NCIH460 cell line (lung)): 6.30
pIC50 (Homo sapiens, OVCAR-3, 72 h, OVCAR3 cell line (ovary)): 6.77
pIC50 (Homo sapiens, OVCAR-4, 72 h, OVCAR4 cell line (ovary)): 6.25
pIC50 (Homo sapiens, PANC-1, 72 h, PANC1 cell line (pancreas)): < 4.30
pIC50 (Homo sapiens, PC-3, 72 h, PC3 cell line (prostate)): 6.33
pIC50 (Homo sapiens, PLC-PRF-5, 72 h, PLCPRF5 cell line (liver)): 5.69
pIC50 (Homo sapiens, Panc1005, 72 h, PANC1005 cell line (pancreas)): 6.64
pIC50 (Homo sapiens, RD, RD cell line (muscle)): 6.19
pIC50 (Homo sapiens, Ramos, RAMOS cell line (hematological)): 6.28
pIC50 (Homo sapiens, SAOS-2, 72 h, SAOS2 cell line (bone)): 6.52
pIC50 (Homo sapiens, SF-268, 72 h, SF268 cell line (brain)): 5.30
pIC50 (Homo sapiens, SF-295, 72 h, SF295 cell line (brain)): 5.78
pIC50 (Homo sapiens, SK-BR-3, 72 h, SKBR3 cell line (breast)): 7.30
pIC50 (Homo sapiens, SK-HEP1, 72 h, SKHEP1 cell line (liver)): 5.62
pIC50 (Homo sapiens, SK-LMS-1, 72 h, SKLMS1 cell line (uterus)): 6.52
pIC50 (Homo sapiens, SK-MEL-5, 72 h, SKMEL5 cell line, skin): 5.50
pIC50 (Homo sapiens, SK-MEL-28, 72 h, SKMEL28 cell line (skin)): 6.17
pIC50 (Homo sapiens, SK-N-AS, SKNAS cell line (brain)): 6.43
pIC50 (Homo sapiens, SK-N-SH, SKNSH cell line (brain)): 6.59
pIC50 (Homo sapiens, SK-OV-3, 72 h, SKOV3 cell line (ovary)): 6.34
pIC50 (Homo sapiens, SNB-75, 72 h, SNB75 cell line (brain)): 5.86
pIC50 (Homo sapiens, SU-DHL10, 72 h, SU-DHL-10 cell line (hematological)): 6.34
pIC50 (Homo sapiens, SU-DHL-6, 72 h, SU-DHL-6 cell line (hematological)): 6.62
pIC50 (Homo sapiens, SW-620, 72 h, SW620 cell line (colon)): 6.44
pIC50 (Homo sapiens, T-24, 72 h, T24 cell line (bladder)): 6.22
pIC50 (Homo sapiens, TE-671, 72 h, TE671 cell line (muscle)): 5.61
pIC50 (Homo sapiens, THP-1, 72 h, THP-1 cell line (hematological)): 5.64
pIC50 (Homo sapiens, U2OS, U2OS cell line (bone)): 6.29
pIC50 (Homo sapiens, U-87 MG, U87MG cell line (brain)): 5.50
pIC50 (Homo sapiens, UMUC3, 72 h, UMUC3 cell line (bladder)): 5.52
pIC50 (Homo sapiens, UO-31, 72 h, UO31 cell line (kidney)): 6.62
pIC50 (Homo sapiens, WSU-NHL, WSU-NHL cell line (hematological)): 6.34
pIC50 (MT-3, 72 h, MT3 cell line (breast)): 6.55
pIC50 (NCI-H358M, NCIH358M cell line (lung)): 6.57
pIC50 (PBMC, PBMC (hematological)): < 4.30
pIC50 (RD-ES, RDES cell line (bone)): 6.60
